Source: ChEMBL document CHEMBL5500375, “Design, synthesis, and evaluation of N1,N3-dialkyldioxonaphthoimidazoliums as antibacterial agents against methicillin-resistant Staphylococcus aureus” (Eur J Med Chem, 2024)
Calls of active or inactive are those of the source. No cut-off for these calls is given here.

How the values were obtained:
Staphylococcus aureus [1] = assay: Antibacterial agents against methicillin-resistant Staphylococcus aureus SA3 assessed as absence of growth measured after 18 hrs by micro-dilution method; type: functional
Staphylococcus aureus [2] = assay: Antibacterial agents against methicillin-resistant Staphylococcus aureus USA300 assessed as absence of growth measured after 18 hrs by micro-dilution method; type: functional
Staphylococcus aureus [3] = assay: Antibacterial agents against c5-resistant mutant of methicillin-resistant Staphylococcus aureus SA3 m1 assessed as absence of growth measured after 18 hrs by micro-dilution method; type: functional
Staphylococcus aureus [4] = assay: Antibacterial agents against c5-resistant mutant of methicillin-resistant Staphylococcus aureus SA3 m2 assessed as absence of growth measured after 18 hrs by micro-dilution method; type: functional
Staphylococcus aureus [5] = assay: Antibacterial agents against c5-resistant mutant of methicillin-resistant Staphylococcus aureus SA3 m3 assessed as absence of growth measured after 18 hrs by micro-dilution method; type: functional
Staphylococcus aureus [6] = assay: Antibacterial agents against c5-resistant mutant of methicillin-resistant Staphylococcus aureus SA3 m4 assessed as absence of growth measured after 18 hrs by micro-dilution method; type: functional
[7] = In vivo toxicity in Drosophila melanogaster strain Oregon R assessed as survival rate at 0.1 to 1 mg/ml measured upto 72 hrs relative to control; type: organism-based; conditions: Oregon R, at 0.1 to 1 mg/mL, dose 0.1-1 mg/ml
[8] = Cytotoxicity against human HEK293 cells assessed as cell survival measured after 72 hrs incubation by Cell Titer-Glo luminescent assay; type: toxicity, cell-based
[9] = Cytotoxicity against human HDFa cells assessed as cell survival measured after 72 hrs incubation by Cell Titer-Glo luminescent assay; type: toxicity, cell-based
[10] = Therapeutic index, ratio of IC50 for HEK293 cells to MIC for […] activity against methicillin-resistant Staphylococcus aureus SA3; type: toxicity; conditions: human, read-out: TI
[11] = Metabolic stability in human liver microsomes assessed as intrinsic clearance at 2 uM preincubated for 5 mins followed by NADPH addition and measured for 35 mins by LC/MS analysis; type: ADME, Microsome; conditions: read-out: CLH
Staphylococcus aureus [12] = assay: Antibacterial agents against methicillin-sensitive Staphylococcus aureus Newman assessed as absence of growth at 0.19 ug/ml measured after overnight incubation under anaerobic condition in presence of N-acetylcysteine by micro-dilution method; type: functional, organism-based; conditions: dose 0.19 µg/ml
Staphylococcus aureus [13] = assay: Antibacterial agents against methicillin-resistant Staphylococcus aureus SA3 assessed as absence of growth at 0.19 ug/ml measured after overnight incubation under anaerobic condition in presence of N-acetylcysteine by micro-dilution method; type: functional, organism-based; conditions: dose 0.19 µg/ml
Staphylococcus aureus [14] = assay: Antibacterial agents against methicillin-resistant Staphylococcus aureus USA300 assessed as absence of growth at 0.19 ug/ml measured after overnight incubation under anaerobic condition in presence of N-acetylcysteine by micro-dilution method; type: functional, organism-based; conditions: dose 0.19 µg/ml
Staphylococcus aureus [15] = assay: Antibacterial agents against c5-resistant mutant of methicillin-resistant Staphylococcus aureus SA3 m2 assessed as absence of growth at 0.19 ug/ml measured after overnight incubation under anaerobic condition in presence of N-acetylcysteine by micro-dilution method; type: functional, organism-based; conditions: dose 0.19 µg/ml
Staphylococcus aureus [16] = assay: Antibacterial agents against c5-resistant mutant of methicillin-resistant Staphylococcus aureus SA3 m4 assessed as absence of growth at 0.19 ug/ml measured after overnight incubation under anaerobic condition in presence of N-acetylcysteine by micro-dilution method; type: functional, organism-based; conditions: dose 0.19 µg/ml
Staphylococcus aureus [17] = assay: Antibacterial agents against c5-resistant mutant of methicillin-resistant Staphylococcus aureus SA3 m5 assessed as absence of growth at 0.19 ug/ml measured after overnight incubation under anaerobic condition in presence of N-acetylcysteine by micro-dilution method; type: functional, organism-based; conditions: dose 0.19 µg/ml
Staphylococcus aureus [18] = assay: Induction of ROS generation in methicillin-resistant Staphylococcus aureus SA3 using hydroxyphenyl fluorescein at 0.09 ug/ml under anaerobic condition; type: functional, organism-based; conditions: dose 0.09 µg/ml, TDE = time-dependent effect
Staphylococcus aureus [19] = assay: Induction of ROS generation in methicillin-resistant Staphylococcus aureus USA300 using hydroxyphenyl fluorescein at 0.09 ug/ml under anaerobic condition; type: functional, organism-based; conditions: dose 0.09 µg/ml, TDE = time-dependent effect
Staphylococcus aureus [20] = assay: Induction of ROS generation in methicillin-resistant Staphylococcus aureus SA3 using hydroxyphenyl fluorescein at 0.19 ug/ml under anaerobic condition; type: functional, organism-based; conditions: dose 0.19 µg/ml
Staphylococcus aureus [21] = assay: Induction of ROS generation in methicillin-resistant Staphylococcus aureus USA300 using hydroxyphenyl fluorescein at 0.19 ug/ml under anaerobic condition; type: functional, organism-based; conditions: dose 0.19 µg/ml
Staphylococcus aureus [22] = assay: Anti-biofilim activity against methicillin-resistant Staphylococcus aureus USA300 assessed decrease in biofilm growth at 1 to 10 times of MIC concentration measured after 12 to 24 hrs incubation; type: functional, organism-based; conditions: time 12-24 hrs
Staphylococcus aureus [23] = assay: Anti-biofilim activity against methicillin-sensitive Staphylococcus aureus SA1 assessed decrease in biofilm growth at 1 to 10 times of MIC concentration measured after 12 to 24 hrs incubation; type: functional, organism-based; conditions: time 12-24 hrs
Pseudomonas aeruginosa [24] = assay: Antibacterial agents against gram negative Pseudomonas aeruginosa PA14 assessed as reduction in colony forming unit at 0.78 ug/ml measured upto 10 hrs by LB agar medium method; type: functional, organism-based; conditions: dose 0.78 µg/ml
Escherichia coli = assay: Antibacterial agents against gram negative Escherichia coli MG1655 assessed as reduction in colony forming unit at 0.78 ug/ml measured upto 10 hrs by LB agar medium method; type: functional, organism-based; conditions: dose 0.78 µg/ml
Pseudomonas aeruginosa [25] = assay: Antibacterial agents against gram negative Pseudomonas aeruginosa PA14 assessed as reduction in colony forming unit at 0.78 ug/ml measured upto 10 hrs in presence of 0.05 ug/ml Polymyxin B by LB agar medium method; type: functional, organism-based; conditions: dose 0.78 µg/ml
Pseudomonas aeruginosa [26] = assay: Antibacterial agents against gram negative Pseudomonas aeruginosa PA14 assessed as reduction in colony forming unit at 0.78 ug/ml in presence of 0.1 to 0.2 ug/ml Polymyxin B by LB agar medium method; type: functional, organism-based; conditions: dose 0.78 µg/ml, time 0-10 hrs, TDE = time-dependent effect
Staphylococcus aureus [27] = assay: Bactericidal activity against methicillin-resistant Staphylococcus aureus SA3 assessed as as reduction in colony forming unit at 0.78 ug/ml measured within 10 hrs by time-kill assay; type: functional; conditions: dose 0.78 µg/ml
Staphylococcus aureus [28] = assay: In vivo antibacterial activity against methicillin-resistant Staphylococcus aureus SA3 infected in dorsal thorax of Drosophila melanogaster strain Oregon R assessed as survival time of Drosophila at 0.2 mg/ml measured upto 72 hrs; type: functional
Staphylococcus aureus [29] = assay: In vivo antibacterial activity against methicillin-resistant Staphylococcus aureus SA3 infected in dorsal thorax of Drosophila melanogaster strain Oregon R assessed as survival time of Drosophila at 0.04 mg/ml measured upto 72 hrs relative to control; type: functional, organism-based
Staphylococcus aureus [30] = assay: Reduction in virulent activity of methicillin-resistant Staphylococcus aureus SA3 infected in dorsal thorax of Drosophila melanogaster strain Oregon R at 0.2 mg/ml measured upto 72 hrs; type: functional, organism-based
Staphylococcus aureus [31] = assay: Antibacterial activity against methicillin-resistant Staphylococcus aureus SA3 assessed as resistance by measuring antibacterial activity after 11 to 20 passages at 0.39 ug/ml by emergence of bacterial resistance assay; type: functional, organism-based; conditions: dose 0.39 µg/ml
Staphylococcus aureus [32] = assay: Antibacterial activity against c5-resistant mutant of methicillin-resistant Staphylococcus aureus SA3 m6 assessed as resistance by measuring antibacterial activity after 20 passages at 200 ug/ml by emergence of bacterial resistance assay; type: functional, organism-based; conditions: dose 200.0 µg/ml
Staphylococcus aureus [33] = assay: Antibacterial activity against methicillin-resistant Staphylococcus aureus SA3 assessed as absence of growth measured after 16 passages by emergence of bacterial resistance assay; type: functional
Staphylococcus aureus [34] = assay: Antibacterial activity against methicillin-resistant Staphylococcus aureus SA3 assessed as fold increase in MIC measured after 16 passages to MIC during first passage; type: functional

CCCCCCCCn1c2c([n+](Cc3ccccc3)c1C)C(=O)c1ccccc1C2=O.[Br-]
MIC (Staphylococcus aureus [1]): 0.39 µg/mL | MIC (Staphylococcus aureus [2]): 0.39 µg/mL | MIC (Staphylococcus aureus [3]): 6.25 µg/mL | MIC (Staphylococcus aureus [4]): 6.25 µg/mL | MIC (Staphylococcus aureus [5]): 6.25 µg/mL | MIC (Staphylococcus aureus [6]): 6.25 µg/mL | survival at 72 h [7]: 75% | IC50 at 72 h [8]: 293 nM | IC50 at 72 h [9]: 1060 nM | selectivity ratio [10]: 0.8 | CLint scaled at 2 µM [11]: 39 mL/min/kg | Activity (Staphylococcus aureus [12]): inactive | Activity (Staphylococcus aureus [13]): inactive | Activity (Staphylococcus aureus [14]): inactive | Activity (Staphylococcus aureus [15]): inactive | Activity (Staphylococcus aureus [16]): inactive | Activity (Staphylococcus aureus [17]): inactive | Activity (Staphylococcus aureus [18]): Tde | Activity (Staphylococcus aureus [19]): Tde | Activity (Staphylococcus aureus [20]): Active | Activity (Staphylococcus aureus [21]): Active | Activity (Staphylococcus aureus [22]): Active | Activity (Staphylococcus aureus [23]): Active | Activity (Pseudomonas aeruginosa [24]): inactive | Activity (Escherichia coli): inactive | Activity (Pseudomonas aeruginosa [25]): inactive | Activity (Pseudomonas aeruginosa [26]): Tde | Activity (Staphylococcus aureus [27]): 3 log10CFU/ml | Time (Staphylococcus aureus [28]): 62 h | Activity (Staphylococcus aureus [29]): Active | Activity (Staphylococcus aureus [30]): inactive | Activity (Staphylococcus aureus [31]): inactive | Activity (Staphylococcus aureus [32]): inactive | MIC (Staphylococcus aureus [33]): 1.56 µg/mL | fold change (FC) (Staphylococcus aureus [34]): 4
